Patent US9556143B2, “Metalloenzyme inhibitor compounds” (Viamet Pharmaceuticals, Inc., priority 2011, dated 2017)

Tested on: Puccinia recondita tritici = Puccinia triticina (PUCCRT)
Assay: Fungicidal activity vs. wheat leaf rust
Type: in vivo, Puccinia recondita tritici on wheat (variety Yuma)
Conditions: % disease control @ 50 ppm, wheat seedlings sprayed, inoculated the following day, severity evaluated 7-9 days later, read-out: Puccinia Rating
Excerpt: D. Evaluation of Fungicidal Activity Vs. Leaf Rust (Causal Agent Puccinia recondita tritici=Puccinia triticina; Bayer code PUCCRT). […] Each pot contained 3-8 seedlings. These plants were sprayed until wet with the formulated test compounds. The compounds were formulated at 50 ppm in 10 vol. % acetone plus 90 vol. % Triton X water (deionized water 99.99 wt %+0.01 wt % Triton X100), giving a “formulated test compound.” Formulated test compounds were applied to plants using a turn table sprayer fitted with two opposing air atomization nozzles which delivered approximately 1500 L/ha of spray volume. On the following day, the leaves were inoculated with an aqueous spore suspension of Puccinia recondita tritici and the plants were kept in high humidity overnight to permit spores to germinate and infect the leaf. The plants were then transferred to a greenhouse until disease developed on untreated control plants. Disease severity was evaluated 7-9 days later, depending on the speed of disease development. In each case of Table 3, the Puccinia rating scale is as follows: […]

`OC(Cn1cnnn1)(c1ccc(Cl)cc1F)C(F)(F)c1ccc(F)cn1` (stereo not shown) [Compound 27, 2-(4-Cloro-2-fluorophenyl)-1,1-difluoro-1-(5-fluoropyridin-2-yl)-3-(1H-tetrazol-1-yl)propan-2-ol] and `OC(Cn1cnnn1)(c1ccc(Cl)cc1F)C(F)(F)c1ccc(Br)cn1` (stereo not shown) [Compound 22, 1-(5-Bromopyridin-2-yl)-2-(4-chloro-2-fluorophenyl)-1,1-difluoro-3-(1H-tetrazol-1-yl)propan-2-ol] fall in the same range of pest or weed control at 50 ppm: 80 to 100% for the first, 80 to 100% for the second.

`OC(Cc1cnco1)(c1ccc(F)cc1F)C(F)(F)c1ccc(Br)cn1` (stereo not shown) [Compound 83, 1-(5-Bromopyridin-2-yl)-2-(2,4-difluorophenyl)-1,1-difluoro-3-(oxazol-5-yl)propan-2-ol] and `OC(Cn1cnnn1)(c1ccc(F)cc1F)C(F)(F)c1ccc(Br)cn1` (stereo not shown) [Compound 1, 1-(5-Bromopyridin-2-yl)-2-(2,4-difluorophenyl)-1,1-difluoro-3-(1H-tetrazol-1-yl)propan-2-ol] fall in the same range of pest or weed control at 50 ppm: 80 to 100% for the first, 80 to 100% for the second.

`OC(Cn1cnnn1)(c1ccc(F)cc1F)C(F)(F)c1ccc(C(F)(F)c2ccc(C(F)(F)F)cc2)cn1` (stereo not shown) [Compound 102, 1-(5-(difluoro(4-(trifluoromethyl)phenyl)methyl)pyridin-2-yl)-2-(2,4-difluorophenyl)-1,1-difluoro-3-(1H-tetrazol-1-yl)propan-2-ol] and `OC(Cn1cnnn1)(c1ccc(F)cc1F)C(F)(F)c1ccc(C(F)(F)c2ccc(F)cc2)cn1` (stereo not shown) [Compound 101, 1-(5-(difluoro(4-fluorophenyl)methyl)pyridin-2-yl)-2-(2,4-difluorophenyl)-1,1-difluoro-3-(1H-tetrazol-1-yl)propan-2-ol] fall in the same range of pest or weed control at 50 ppm: 80 to 100% for the first, 80 to 100% for the second.

First: N#Cc1ccc(SCc2ccc(C(F)(F)C(O)(Cn3cnnn3)c3ccc(F)cc3F)nc2)c(F)c1 (stereo not shown) [Compound 90, 4-(((6-(2-(2,4-difluorophenyl)-1,1-difluoro-2-hydroxy-3-(1H-tetrazol-1-yl)propyl)pyridin-3-yl)methyl)thio)-3-fluorobenzonitrile]
Second: N#Cc1ccc(-c2ccc(C(F)(F)C(O)(Cn3cnnn3)c3ccc(F)cc3F)nc2)nc1 (stereo not shown) [Compound 95, 6′-(2-(2,4-difluorophenyl)-1,1-difluoro-2-hydroxy-3-(1H-tetrazol-1-yl)propyl)-[2,3′-bipyridin]-5-carbonitrile]
The pest or weed control at 50 ppm of the first is lower: 40 to 59% for the first, 80 to 100% for the second.

`O=C(c1ccc(F)cc1)c1ccc(C(F)(F)C(O)(Cn2cnnn2)c2ccc(F)cc2F)nc1` (stereo not shown) [Compound 69, (6-(2-(2,4-Difluorophenyl)-1,1-difluoro-2-hydroxy-3-(1H-tetrazol-1-yl)propyl)pyridin-3-yl)(4-fluorophenyl)methanone] and `O=C(c1ccc(C(F)(F)C(O)(Cn2cnnn2)c2ccc(F)cc2F)nc1)c1ccc(Cl)c(F)c1` (stereo not shown) [Compound 71, (4-Chloro-3-fluorophenyl)(6-(2-(2,4-difluorophenyl)-1,1-difluoro-2-hydroxy-3-(1H-tetrazol-1-yl)propyl)pyridin-3-yl)methanone] fall in the same range of pest or weed control at 50 ppm: 80 to 100% for the first, 80 to 100% for the second.

`OC(Cn1cnnn1)(c1ccc(F)cc1F)C(F)(F)c1ccc(Cc2ccc(OC(F)(F)F)cc2)cn1` (stereo not shown) [Compound 76, 2-(2,4-Difluorophenyl)-1,1-difluoro-3-(1H-tetrazol-1-yl)-1-(5-(4-(trifluoromethoxy)benzyl)pyridin-2-yl)propan-2-ol] and `OC(Cn1cnnn1)(c1ccc(F)cc1F)C(F)(F)c1ccc(Cc2ccc(C(F)(F)F)cc2)cn1` (stereo not shown) [Compound 73, 2-(2,4-Difluorophenyl)-1,1-difluoro-3-(1H-tetrazol-1-yl)-1-(5-(4-(trifluoromethyl)benzyl)pyridin-2-yl)propan-2-ol] fall in the same range of pest or weed control at 50 ppm: 80 to 100% for the first, 80 to 100% for the second.

`CCOCCCc1ccc(C(F)(F)C(O)(Cn2cnnn2)c2ccc(F)cc2F)nc1` (stereo not shown) [Compound 53, 2-(2,4-Difluorophenyl)-1-(5-(3-ethoxypropyl)pyridin-2-yl)-1,1-difluoro-3-(1H-tetrazol-1-yl)propan-2-ol] and `OC(Cn1cnnn1)(c1ccc(F)cc1F)C(F)(F)c1ccc(CCCOCC(F)(F)F)cn1` (stereo not shown) [Compound 45, 2-(2,4-Difluorophenyl)-1,1-difluoro-3-(1H-tetrazol-1-yl)-1-(5-(3-(2,2,2-trifluoroethoxy)propyl)pyridin-2-yl)propan-2-ol] fall in the same range of pest or weed control at 50 ppm: 80 to 100% for the first, 80 to 100% for the second.

`N#Cc1ccc(C(F)(F)c2ccc(C(F)(F)C(O)(Cn3cnnn3)c3ccc(F)cc3F)nc2)cc1` (stereo not shown) [Compound 103, 4-((6-(2-(2,4-difluorophenyl)-1,1-difluoro-2-hydroxy-3-(1H-tetrazol-1-yl)propyl)pyridin-3-yl)difluoromethyl)benzonitrile] and `N#Cc1ccc(OCc2ccc(C(F)(F)C(O)(Cn3cnnn3)c3ccc(F)cc3F)nc2)cc1` (stereo not shown) [Compound 79, 4-((6-(2-(2,4-Difluorophenyl)-1,1-difluoro-2-hydroxy-3-(1H-tetrazol-1-yl)propyl)pyridin-3-yl)methoxy)benzonitrile] fall in the same range of pest or weed control at 50 ppm: 80 to 100% for the first, 80 to 100% for the second.

`OC(Cn1cnnn1)(c1ccc(F)cc1F)C(F)(F)c1ccc(-c2ccc(Cl)cn2)cn1` (stereo not shown) [Compound 93, 1-(5-chloro-[2,3′-bipyridin]-6′-yl)-2-(2,4-difluorophenyl)-1,1-difluoro-3-(1H-tetrazol-1-yl)propan-2-ol] and `OC(Cn1cnnn1)(c1ccc(F)cc1F)C(F)(F)c1ccc(-c2nccs2)cn1` (stereo not shown) [Compound 38, 2-(2,4-Difluorophenyl)-1,1-difluoro-3-(1H-tetrazol-1-yl)-1-(5-(thiazol-2-yl)pyridin-2-yl)propan-2-ol] fall in the same range of pest or weed control at 50 ppm: 80 to 100% for the first, 80 to 100% for the second.

`OC(Cn1cnnn1)(c1ccc(F)cc1F)C(F)(F)c1ccc(F)cn1` (stereo not shown) [Compound 10, 2-(2,4-Difluorophenyl)-1,1-difluoro-1-(5-fluoropyridin-2-yl)-3-(1H-tetrazol-1-yl)propan-2-ol] and `Cc1ccc(C(F)(F)C(O)(Cn2cnnn2)c2ccc(F)cc2F)nc1` (stereo not shown) [Compound 25, 2-(2,4-Difluorophenyl)-1,1-difluoro-1-(5-methylpyridin-2-yl)-3-(1H-tetrazol-1-yl)propan-2-ol] fall in the same range of pest or weed control at 50 ppm: 80 to 100% for the first, 80 to 100% for the second.

`OC(Cn1cnnn1)(c1ccc(F)cc1F)C(F)(F)c1ccc(CC(F)(F)F)cn1` (stereo not shown) [Compound 17, 2-(2,4-Difluorophenyl)-1,1-difluoro-3-(1H-tetrazol-1-yl)-1-(5-(2,2,2-trifluoroethyl)pyridin-2-yl)propan-2-ol] and `OC(Cn1cnnn1)(c1ccc(F)cc1F)C(F)(F)c1ccc(CC2CC2)cn1` (stereo not shown) [Compound 59, 1-(5-(Cyclopropylmethyl)pyridin-2-yl)-2-(2,4-difluorophenyl)-1,1-difluoro-3-(1H-tetrazol-1-yl)propan-2-ol] fall in the same range of pest or weed control at 50 ppm: 80 to 100% for the first, 80 to 100% for the second.

`OC(Cn1cnnn1)(c1ccc(Cl)cc1F)C(F)(F)c1ccc(-n2nccn2)cn1` (stereo not shown) [Compound 28, 1-(5-(2H-1,2,3-Triazol-2-yl)pyridin-2-yl)-2-(4-chloro-2-fluorophenyl)-1,1-difluoro-3-(1H-tetrazol-1-yl)propan-2-ol] and `OC(Cn1cnnn1)(c1ccc(Cl)cc1F)C(F)(F)c1ccc(Cl)cn1` (stereo not shown) [Compound 26, 2-(4-Chloro-2-fluorophenyl)-1-(5-chloropyridin-2-yl)-1,1-difluoro-3-(1H-tetrazol-1-yl)propan-2-ol] fall in the same range of pest or weed control at 50 ppm: 80 to 100% for the first, 80 to 100% for the second.

`CCOC/C=C\c1ccc(C(F)(F)C(O)(Cn2cnnn2)c2ccc(F)cc2F)nc1` (stereo not shown) [Compound 52, (Z)-2-(2,4-Difluorophenyl)-1-(5-(3-ethoxyprop-1-en-1-yl)pyridin-2-yl)-1,1-difluoro-3-(1H-tetrazol-1-yl)propan-2-ol] and `CCOC/C=C/c1ccc(C(F)(F)C(O)(Cn2cnnn2)c2ccc(F)cc2F)nc1` (stereo not shown) [Compound 51, (E)-2-(2,4-Difluorophenyl)-1-(5-(3-ethoxyprop-1-en-1-yl)pyridin-2-yl)-1,1-difluoro-3-(1H-tetrazol-1-yl)propan-2-ol] cannot be ordered by pest or weed control at 50 ppm: less than 40% for the first, less than 40% for the second.

First: OC(Cn1cnnn1)(c1ccc(F)cc1F)C(F)(F)c1ccc(-c2ccc(C(F)(F)F)s2)cn1 (stereo not shown) [Compound 34, 2-(2,4-Difluorophenyl)-1,1-difluoro-3-(1H-tetrazol-1-yl)-1-(5-(5-(trifluoromethyl)thiophen-2-yl)pyridin-2-yl)propan-2-ol]
Second: COc1ccc(-c2ccc(C(F)(F)C(O)(Cn3cnnn3)c3ccc(F)cc3F)nc2)s1 (stereo not shown) [Compound 32, 2-(2,4-Difluorophenyl)-1,1-difluoro-1-(5-(5-methoxythiophen-2-yl)pyridin-2-yl)-3-(1H-tetrazol-1-yl)propan-2-ol]
The pest or weed control at 50 ppm of the first is higher: 80 to 100% for the first, 40 to 59% for the second.

`OC(Cn1cncn1)(c1ccc(F)cc1F)C(F)(F)c1ccc(Cl)cn1` (stereo not shown) [Compound 29, 1-(5-Chloropyridin-2-yl)-2-(2,4-difluorophenyl)-1,1-difluoro-3-(1H-1,2,4-triazol-1-yl)propan-2-ol] and `OC(Cn1cnnn1)(c1ccc(F)cc1F)C(F)(F)c1ccccn1` (stereo not drawn) [2(−), 2-(2,4-Difluorophenyl)-1,1-difluoro-1-(pyridin-2-yl)-3-(1H-tetrazol-1-yl)propan-2-ol] fall in the same range of pest or weed control at 50 ppm: 80 to 100% for the first, 80 to 100% for the second.

`OC(Cn1cnnn1)(c1ccc(Cl)cc1F)C(F)(F)c1ccc(C2CC2)cn1` (stereo not shown) [Compound 40, 2-(4-Chloro-2-fluorophenyl)-1-(5-cyclopropylpyridin-2-yl)-1,1-difluoro-3-(1H-tetrazol-1-yl)propan-2-ol] gave a pest or weed control at 50 ppm of 80 to 100%.
